Reference: US20240409553A1, “HETEROCYCLIC NLRP3 INHIBITORS” (Hoffmann-La Roche Inc., priority 2021, published 2024)
pIC50: −log10 of the molar value. Where a name gives a salt, the structure may show the parent alone.

How the values were obtained:
NLRP3 [1] = target: T1, NLRP3 (Homo sapiens, UniProt Q96P20); test: THP-1 cells pyroptosis assay (LPS priming, nigericin, resazurin readout); assay type: cell-based; design: Seed THP-1 cells (25,000 cells/well) containing 1.0 μg/ml LPS; host or cells: THP-1 cells, LPS-primed, nigericin-stimulated; details: 1 μg/ml LPS, 3 h compound, 5 μM nigericin 1 hr
T1 sequence (Q96P20 whole entry): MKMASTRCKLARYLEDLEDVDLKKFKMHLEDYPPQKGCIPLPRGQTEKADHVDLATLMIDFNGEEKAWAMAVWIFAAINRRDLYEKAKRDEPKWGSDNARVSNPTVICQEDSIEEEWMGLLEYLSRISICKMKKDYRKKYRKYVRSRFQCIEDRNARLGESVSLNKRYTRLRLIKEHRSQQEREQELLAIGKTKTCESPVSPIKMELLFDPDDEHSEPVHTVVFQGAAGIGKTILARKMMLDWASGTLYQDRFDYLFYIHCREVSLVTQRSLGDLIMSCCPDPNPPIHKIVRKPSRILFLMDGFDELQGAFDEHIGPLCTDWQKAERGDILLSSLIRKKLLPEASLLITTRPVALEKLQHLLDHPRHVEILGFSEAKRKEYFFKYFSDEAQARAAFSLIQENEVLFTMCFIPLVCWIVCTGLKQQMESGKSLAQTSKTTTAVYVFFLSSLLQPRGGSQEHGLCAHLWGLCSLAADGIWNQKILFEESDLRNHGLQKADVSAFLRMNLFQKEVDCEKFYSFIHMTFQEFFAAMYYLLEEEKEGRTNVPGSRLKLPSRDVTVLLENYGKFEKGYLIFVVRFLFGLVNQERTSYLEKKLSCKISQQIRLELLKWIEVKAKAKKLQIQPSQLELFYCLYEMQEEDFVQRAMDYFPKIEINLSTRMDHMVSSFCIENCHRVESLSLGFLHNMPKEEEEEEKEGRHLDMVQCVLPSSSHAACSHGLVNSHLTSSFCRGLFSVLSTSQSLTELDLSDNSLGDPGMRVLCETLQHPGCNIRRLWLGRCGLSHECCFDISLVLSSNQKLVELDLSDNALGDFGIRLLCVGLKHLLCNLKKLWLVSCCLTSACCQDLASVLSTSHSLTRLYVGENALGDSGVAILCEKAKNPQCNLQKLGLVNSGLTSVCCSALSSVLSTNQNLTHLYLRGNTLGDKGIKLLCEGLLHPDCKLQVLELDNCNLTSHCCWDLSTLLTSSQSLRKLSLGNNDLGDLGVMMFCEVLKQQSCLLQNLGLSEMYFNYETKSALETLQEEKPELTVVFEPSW
Protocol: THP-1 cells (ATCC #TIB-202) were grown in RPMI containing L-glutamine (Gibco #11835) supplemented with 1 mM sodium pyruvate (Sigma #S8636) and penicillin (100 units/ml)/streptomycin (0.1 mg/ml) (Sigma #P4333) in 10% Fetal Bovine Serum (FBS) (Sigma #F0804). The cells were routinely passaged and grown to confluency (˜10^6 cells/ml). On the day of the experiment, THP-1 cells were harvested and resuspended into RPMI medium (without FBS). The cells were then counted and viability (>90%) checked by Trypan blue (Sigma #T8154). Appropriate dilutions were made to give a concentration of 625,000 cells/ml. To this diluted cell solution was added LPS (Sigma #L4524) to give a 1 μg/ml Final Assay Concentration (FAC). 40 μl of the final preparation was aliquoted into each well of a 96-well plate. The plate thus prepared was used for compound screening.
The following method step-by-step assay was followed for compound screening. • 1. Seed THP-1 cells (25,000 cells/well) containing 1.0 μg/ml LPS in 40 μl of RPMI medium (without FBS) in 96-well, black walled, clear bottom cell culture plates coated with poly-D-lysine (VWR #734-0317) • 2. Add 5 μl compound (8 points half-log dilution, with 10 μM top dose) or vehicle (DMSO 0.1% FAC) to the appropriate wells • 3. Incubate for 3 hours at 37° C., 5% CO2 • 4. Add 5 μl nigericin (Sigma #N7143) (FAC 5 μM) to all wells • 5. Incubate for 1 hr at 37° C., 5% CO2 • 6. At the end of the incubation period, spin plates at 300×g for 3 mins and remove supernatant • 7. Then add 50 μl of resazurin (Sigma #R7017) (FAC 100 μM resazurin in RPMI medium without FBS) and incubate plates for a further 1-2 hours at 37° C. and 5% CO2 • 8. Plates were read in an Envision reader at Ex 560 nm and Em 590 nm • 9. IC50 data is fitted to a non-linear regression equation (log inhibitor vs response-variable slope 4-parameters)

NLRP3 [2] = target: T1, NLRP3; test: Human whole blood IL-1β release assay (LPS, nigericin, AlphaLisa); assay type: cell-based; design: Plate out 80 μl of whole blood containing 1 μg/ml of LPS; from tissue; host or cells: human whole blood from healthy donors, LPS-primed, nigericin-stimulated; details: 1 μg/ml LPS, 3 h compound, 10 μM nigericin 1 hr, IL-1β in supernatant, read-out: Human whole blood IB-1β Assay IC50
Protocol: For systemic delivery, the ability to inhibit NLRP3 when the compounds are present within the bloodstream is of great importance. For this reason, the NLRP3 inhibitory activity of a number of compounds in human whole blood was investigated in accordance with the following protocol.
Human whole blood in Li-heparin tubes was obtained from healthy donors from a volunteer donor panel. • 1. Plate out 80 μl of whole blood containing 1 μg/ml of LPS in 96-well, clear bottom cell culture plate (Corning #3585) • 2. Add 10 μl compound (8 points half-log dilution with 10 μM top dose) or vehicle (DMSO 0.10% FAC) to the appropriate wells • 3. Incubate for 3 hours at 37° C., 5% CO2 • 4. Add 10 μl nigericin (Sigma #N7143) (10 μM FAC) to all wells • 5. Incubate for 1 hr at 37° C., 5% CO2 • 6. At the end of the incubation period, spin plates at 300×g for 5 mins to pellet cells and remove 20 μl of supernatant and add to 96-well v-bottom plates for IL-1β analysis (note: these plates containing the supernatants can be stored at −80° C. to be analysed at a later date) • 7. IL-1β was measured according to the manufacturer protocol (Perkin Elmer-AlphaLisa IL-1 Kit AL220F-5000) • 8. IC50 data is fitted to a non-linear regression equation (log inhibitor vs response-variable slope 4-parameters)

SMILES	pIC50 (NLRP3 [1])	pIC50 (NLRP3 [2])
CCN1CCCC(Nc2nnc(-c3ccc(C(F)(F)F)cc3)c3ccsc23)C1 (racemic) [Example 3, (rac)-N-(1-ethyl-3-piperidyl)-4-[4-(trifluoromethyl)phenyl]thieno[2,3-d]pyridazin-7-amine]	7.24	10.04
CCN1CCCC(Nc2nnc(-c3ccc(C(F)(F)F)cc3)c3sccc23)C1 (racemic) [Example 4, (rac)-N-(1-ethyl-3-piperidyl)-7-[4-(trifluoromethyl)phenyl]thieno[2,3-d]pyridazin-4-amine]	7.28	9.48
CCN1CCC[C@@H](Nc2nnc(-c3ccc(C(F)(F)F)cc3O)c3c2ccn3C)C1 [Example 5-HCl, 2-[4-[[(3R)-1-Ethyl-3-piperidyl]amino]-1-methyl-pyrrolo[2,3-d]pyridazin-7-yl]-5-(trifluoromethyl)phenol; hydrochloride]	7.94	
CCN1CCC[C@@H](Nc2nnc(-c3ccc(C(F)(F)F)cc3O)c3c2ccn3C)C1 [Example 5-TFA, 2-[4-[[(3R)-1-ethyl-3-piperidyl]amino]-1-methyl-pyrrolo[2,3-d]pyridazin-7-yl]-5-(trifluoromethyl)phenol; 2,2,2-trifluoroacetic acid]	7.91	10.55
CCN1CCC[C@@H](Nc2nnc(-c3ccc(C(F)(F)F)cc3O)c3occc23)C1 [Example 7, 2-[4-[[(3R)-1-ethyl-3-piperidyl]amino]furo[2,3-d]pyridazin-7-yl]-5-(trifluoromethyl)phenol]	8.04	9.23
Cn1ncc2c(N[C@@H]3CCCC[C@H]3O)nnc(-c3ccc(C(F)(F)F)cc3O)c21 [Example 11, 2-[4-[[(1R,2R)-2-Hydroxycyclohexyl]amino]-1-methyl-pyrazolo[3,4-d]pyridazin-7-yl]-5-(trifluoromethyl)phenol; 2,2,2-trifluoroacetic acid]	7.12	
CCN1CCC[C@@H](Nc2nnc(-c3ccc(C(F)(F)F)cc3O)c3onc(C)c23)C1 [Example 13, 2-[4-[[(3R)-1-Ethyl-3-piperidyl]amino]-3-methyl-isoxazolo[4,5-d]pyridazin-7-yl]-5-(trifluoromethyl)phenol]	7.74	8.59
CCN1CCC[C@@H](Nc2nnc(-c3c(O)cc(C(F)(F)F)cc3F)c3c2cnn3C)C1 [Example 15, 2-[4-[[(3R)-1-Ethyl-3-piperidyl]amino]-1-methyl-pyrazolo[3,4-d]pyridazin-7-yl]-3-fluoro-5-(trifluoromethyl)phenol]	8.07	9.63
Cn1ncc2c(N[C@H]3C[C@@](C)(O)C3)nnc(-c3ccc(C(F)(F)F)cc3O)c21 [Example 16, 2-[4-[(3-Hydroxy-3-methyl-cyclobutyl)amino]-1-methyl-pyrazolo[3,4-d]pyridazin-7-yl]-5-(trifluoromethyl)phenol]	6.44	
CCN1C[C@@H](O)C[C@@H](Nc2nnc(-c3ccc4c(c3O)CCO4)c3c2cnn3C)C1 [Example 19, (3S,5R)-1-Ethyl-5-[[7-(4-hydroxy-2,3-dihydrobenzofuran-5-yl)-1-methyl-pyrazolo[3,4-d]pyridazin-4-yl]amino]piperidin-3-ol]	7.33	9.52

Stronger by pIC50 (NLRP3 [1]), values ahead:

pIC50 (NLRP3 [1])	pIC50 (NLRP3 [2])	SMILES
8.80	10.06	CCN1CCCC(Nc2nnc(-c3ccc(C(F)(F)F)cc3O)c3ccsc23)C1 (racemic) [Example 1, (rac)-2-[7-[(1-Ethyl-3-piperidyl)amino]thieno[2,3-d]pyridazin-4-yl]-5(trifluoromethyl)phenol; formic acid]
8.46	9.46	CCN1CCCC(Nc2nnc(-c3ccc(C(F)(F)F)cc3O)c3sccc23)C1 (racemic) [Example 2, (rac)-2-[4-[(1-Ethyl-3-piperidyl)amino]thieno[2,3-d]pyridazin-7-yl]-5 (trifluoromethyl)phenol; formic acid]
8.46	10.55	CCN1CCC[C@@H](Nc2nnc(-c3ccc(C(F)(F)F)cc3O)c3c2cnn3C)C1 [Example 6, 2-[4-[[(3R)-1-Ethyl-3-piperidyl]amino]-1-methyl-pyrazolo[3,4-d]pyridazin-7-yl]-5-(trifluoromethyl)phenol; 2,2,2-trifluoroacetic acid]
8.57	9.66	CCN1CCC[C@@H](Nc2nnc(-c3ccc(C(F)(F)F)cc3O)c3cnn(C)c23)C1 [Example 9, 2-[7-[[(3R)-1-Ethyl-3-piperidyl]amino]-1-methyl-pyrazolo[3,4-d]pyridazin-4-yl]-5-(trifluoromethyl)phenol]
8.64	10.62	CCN1CCC[C@@H](Nc2nnc(-c3ccc(OC(F)(F)F)cc3O)c3c2cnn3C)C1 [Example 10, 2-[4-[[(3R)-1-Ethyl-3-piperidyl]amino]-1-methyl-pyrazolo[3,4-d]pyridazin-7-yl]-5-(trifluoromethoxy)phenol; 2,2,2-trifluoroacetic acid]
8.66	10.85	CCN1CCC[C@@H](Nc2nnc(-c3ccc(Cl)cc3O)c3c2cnn3C)C1 [Example 12, 5-Chloro-2-[1-methyl-4-[[(3R)-1-ethyl-3-piperidyl]amino]pyrazolo[3,4-d]pyridazin-7-yl]phenol; 2,2,2-trifluoroacetic acid]
8.11	9.95	CCN1CCC[C@@H](Nc2nnc(-c3c(C)cc(C(F)(F)F)cc3O)c3[nH]ncc23)C1 [Example 14, 2-[4-[[(3R)-1-ethyl-3-piperidyl]amino]-1H-pyrazolo[3,4-d]pyridazin-7-yl]-3-methyl-5-(trifluoromethyl)phenol; 2,2,2-trifluoroacetic acid]
8.44	10.82	CCN1CCC[C@@H](Nc2nnc(-c3ccc4c(c3O)CCO4)c3c2cnn3C)C1 [Example 17, 5-[4-[[(3R)-1-Ethyl-3-piperidyl]amino]-1-methyl-pyrazolo[3,4-d]pyridazin-7-yl]-2,3-dihydrobenzofuran-4-ol]
8.66	10.48	CCN1CCC[C@@H](Nc2nnc(-c3ccc4c(c3O)CC4)c3c2cnn3C)C1 [Example 18, 3-[4-[[(3R)-1-Ethyl-3-piperidyl]amino]-1-methyl-pyrazolo[3,4-d]pyridazin-7-yl]bicyclo[4.2.0]octa-1(6),2,4-trien-2-ol]
